Reference: PubChem BioAssay (NCI)
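Growth conditions: 96-well plates. Treatment: test compound, 48 hours, 5 concentrations. Analysis: linear interpolation between bracketing concentrations; unreached endpoints set to highest concentration. The concentration for full growth arrest is given as TGI.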

Key:
Assay in all cases: NCI-60 cell line screen, 48 h
SNB-19 CNS = test system: SNB-19 CNS
UACC-257 melanoma = test system: UACC-257 melanoma
DU-145 prostate = test system: DU-145 prostate
SR leukemia = test system: SR leukemia
IGROV1 ovarian = test system: IGROV1 ovarian
RPMI-8226 leukemia = test system: RPMI-8226 leukemia
T-47D breast = test system: T-47D breast
RXF 393 renal = test system: RXF 393 renal
EKVX NSCLC = test system: EKVX NSCLC
SK-MEL-5 melanoma = test system: SK-MEL-5 melanoma
PC-3 prostate = test system: PC-3 prostate
OVCAR-4 ovarian = test system: OVCAR-4 ovarian
MDA-MB-231 breast = test system: MDA-MB-231 breast
OVCAR-3 ovarian = test system: OVCAR-3 ovarian
HOP-62 NSCLC = test system: HOP-62 NSCLC
NCI-H522 lung = test system: NCI-H522 lung
BT-549 breast = test system: BT-549 breast
HCT-15 colon = test system: HCT-15 colon
MOLT-4 leukemia = test system: MOLT-4 leukemia
MCF7 breast = test system: MCF7 breast
UO-31 renal = test system: UO-31 renal
NCI-H226 lung = test system: NCI-H226 lung
U251 CNS = test system: U251 CNS
MDA-N = test system: MDA-N
NCI-H460 lung = test system: NCI-H460 lung
SN12C renal = test system: SN12C renal
A498 renal = test system: A498 renal
K-562 leukemia = test system: K-562 leukemia
A549 NSCLC = test system: A549 NSCLC
OVCAR-8 ovarian = test system: OVCAR-8 ovarian
KM12 colon = test system: KM12 colon
SNB-75 CNS = test system: SNB-75 CNS
SW-620 colon = test system: SW-620 colon
LOX IMVI melanoma = test system: LOX IMVI melanoma
HOP-92 NSCLC = test system: HOP-92 NSCLC
SK-MEL-28 melanoma = test system: SK-MEL-28 melanoma
M14 melanoma = test system: M14 melanoma
NCI/ADR-RES ovarian = test system: NCI/ADR-RES ovarian
COLO 205 colon = test system: COLO 205 colon
CCRF-CEM leukemia = test system: CCRF-CEM leukemia
HS 578T breast = test system: HS 578T breast
786-0 renal = test system: 786-0 renal
SF-295 CNS = test system: SF-295 CNS
MDA-MB-435 = test system: MDA-MB-435
HCC-2998 colon = test system: HCC-2998 colon
HCT-116 colon = test system: HCT-116 colon
CAKI-1 renal = test system: CAKI-1 renal
SK-MEL-2 melanoma = test system: SK-MEL-2 melanoma
SK-OV-3 ovarian = test system: SK-OV-3 ovarian
TK-10 renal = test system: TK-10 renal
MALME-3M melanoma = test system: MALME-3M melanoma
NCI-H23 lung = test system: NCI-H23 lung
UACC-62 melanoma = test system: UACC-62 melanoma
HL-60(TB) leukemia = test system: HL-60(TB) leukemia
SF-539 CNS = test system: SF-539 CNS
OVCAR-5 ovarian = test system: OVCAR-5 ovarian
ACHN renal = test system: ACHN renal
HT29 colon = test system: HT29 colon
SF-268 CNS = test system: SF-268 CNS

Structure (SMILES): CCOC(=O)CC[C@H](NC(=O)[C@H](N)Cc1ccc(N(CCCl)CCCl)cc1)C(=O)OCC
- TGI (SNB-19 CNS): > 96 µM
- TGI (UACC-257 melanoma): 37.9 µM
- TGI (DU-145 prostate): 43.9 µM
- TGI (SR leukemia): > 100 µM
- TGI (IGROV1 ovarian): > 65.7 µM
- TGI (RPMI-8226 leukemia): > 100 µM
- TGI (T-47D breast): 38.6 µM
- TGI (RXF 393 renal): 29.7 µM
- TGI (EKVX NSCLC): > 67.9 µM
- TGI (SK-MEL-5 melanoma): 23.5 µM
- TGI (PC-3 prostate): > 75.1 µM
- TGI (OVCAR-4 ovarian): > 45.2 µM
- TGI (MDA-MB-231 breast): > 58.8 µM
- TGI (OVCAR-3 ovarian): 30.2 µM
- TGI (HOP-62 NSCLC): > 59.6 µM
- TGI (NCI-H522 lung): 18.3 µM
- TGI (BT-549 breast): > 65.3 µM
- TGI (HCT-15 colon): > 55.7 µM
- TGI (MOLT-4 leukemia): 6.85 µM
- TGI (MCF7 breast): > 87.3 µM
- TGI (UO-31 renal): 29.8 µM
- TGI (NCI-H226 lung): > 72 µM
- TGI (U251 CNS): > 59.2 µM
- TGI (MDA-N): > 50.8 µM
- TGI (NCI-H460 lung): 17.3 µM
- TGI (SN12C renal): > 62.4 µM
- TGI (A498 renal): > 100 µM
- TGI (K-562 leukemia): > 100 µM
- TGI (A549 NSCLC): > 100 µM
- TGI (OVCAR-8 ovarian): > 52.8 µM
- TGI (KM12 colon): 31.8 µM
- TGI (SNB-75 CNS): 35.3 µM
- TGI (SW-620 colon): > 58.8 µM
- TGI (LOX IMVI melanoma): 41.6 µM
- TGI (HOP-92 NSCLC): 18.3 µM
- TGI (SK-MEL-28 melanoma): > 54.3 µM
- TGI (M14 melanoma): 21.8 µM
- TGI (NCI/ADR-RES ovarian): 30.9 µM
- TGI (COLO 205 colon): 52.9 µM
- TGI (CCRF-CEM leukemia): > 49.6 µM
- TGI (HS 578T breast): 52.7 µM
- TGI (786-0 renal): 23.5 µM
- TGI (SF-295 CNS): > 77.8 µM
- TGI (MDA-MB-435): > 53.1 µM
- TGI (HCC-2998 colon): > 48.6 µM
- TGI (HCT-116 colon): > 68 µM
- TGI (CAKI-1 renal): > 37.1 µM
- TGI (SK-MEL-2 melanoma): 63.2 µM
- TGI (SK-OV-3 ovarian): > 72.8 µM
- TGI (TK-10 renal): > 100 µM
- TGI (MALME-3M melanoma): 9.92 µM
- TGI (NCI-H23 lung): 12.9 µM
- TGI (UACC-62 melanoma): 15.2 µM
- TGI (HL-60(TB) leukemia): 36.6 µM
- TGI (SF-539 CNS): 30.8 µM
- TGI (OVCAR-5 ovarian): 65 µM
- TGI (ACHN renal): > 100 µM
- TGI (HT29 colon): > 78 µM
- TGI (SF-268 CNS): 19.7 µM

Structure (SMILES): Cc1ccnc2[nH]c3ccccc3c(=O)c12
- TGI (SNB-19 CNS): > 100 µM
- TGI (UACC-257 melanoma): > 100 µM
- TGI (DU-145 prostate): > 100 µM
- TGI (SR leukemia): > 100 µM
- TGI (IGROV1 ovarian): 49.5 µM
- TGI (RPMI-8226 leukemia): 95.8 µM
- TGI (T-47D breast): > 100 µM
- TGI (RXF 393 renal): 41.8 µM
- TGI (EKVX NSCLC): 71.7 µM
- TGI (SK-MEL-5 melanoma): 33.2 µM
- TGI (PC-3 prostate): 81.6 µM
- TGI (OVCAR-4 ovarian): > 100 µM
- TGI (MDA-MB-231 breast): > 100 µM
- TGI (OVCAR-3 ovarian): 72.1 µM
- TGI (HOP-62 NSCLC): > 100 µM
- TGI (NCI-H522 lung): 32.9 µM
- TGI (BT-549 breast): 86.7 µM
- TGI (HCT-15 colon): > 100 µM
- TGI (MOLT-4 leukemia): 55.1 µM
- TGI (MCF7 breast): > 100 µM
- TGI (UO-31 renal): > 100 µM
- TGI (NCI-H226 lung): > 100 µM
- TGI (MDA-N): 47 µM
- TGI (NCI-H460 lung): 97.5 µM
- TGI (SN12C renal): 52.4 µM
- TGI (A498 renal): > 100 µM
- TGI (K-562 leukemia): > 100 µM
- TGI (OVCAR-8 ovarian): > 100 µM
- TGI (KM12 colon): 50.3 µM
- TGI (SNB-75 CNS): 32.1 µM
- TGI (SW-620 colon): > 100 µM
- TGI (LOX IMVI melanoma): > 100 µM
- TGI (HOP-92 NSCLC): > 100 µM
- TGI (SK-MEL-28 melanoma): 47.5 µM
- TGI (M14 melanoma): > 100 µM
- TGI (NCI/ADR-RES ovarian): > 100 µM
- TGI (COLO 205 colon): 59.1 µM
- TGI (CCRF-CEM leukemia): > 100 µM
- TGI (HS 578T breast): 48 µM
- TGI (786-0 renal): > 100 µM
- TGI (SF-295 CNS): > 100 µM
- TGI (MDA-MB-435): 41.8 µM
- TGI (HCC-2998 colon): 65 µM
- TGI (HCT-116 colon): > 100 µM
- TGI (CAKI-1 renal): 38.5 µM
- TGI (SK-MEL-2 melanoma): 68.7 µM
- TGI (SK-OV-3 ovarian): > 100 µM
- TGI (TK-10 renal): 36.3 µM
- TGI (MALME-3M melanoma): 43.1 µM
- TGI (NCI-H23 lung): 90.6 µM
- TGI (UACC-62 melanoma): 40 µM
- TGI (HL-60(TB) leukemia): 61.3 µM
- TGI (SF-539 CNS): 46.6 µM
- TGI (OVCAR-5 ovarian): > 100 µM
- TGI (ACHN renal): > 100 µM
- TGI (HT29 colon): 36 µM
- TGI (SF-268 CNS): 45.5 µM
